According to ChEMBL document CHEMBL4814075, “Novel Thienopyrimidines as Acetyl-CoA Carboxylase Inhibitors for Treating Liver Diseases” (ACS Med Chem Lett, 2021):

Target: Acetyl-CoA carboxylase 1 (Homo sapiens, UniProt Q13085)
Assay: Inhibition of ACC1 in human HepG2 cells assessed as lipid content using 13C-labelled acetate as substrate incubated for 1 hr followed by substrate addition and measured after 24 hrs by QTOF mass spectrometer
Format: cell-based

COc1ccccc1[C@H](Cn1c(=O)n(C(C)(C)C(=O)NS(=O)(=O)C2(C)CC2)c(=O)c2c(C)c(-c3ncco3)sc21)O[C@@H]1C[C@H]2CC[C@@H](C1)O2
EC50: 1 nM

COc1ccccc1[C@H](Cn1c(=O)n(C2(C(=O)NS(=O)(=O)C3(C)CC3)CC2)c(=O)c2c(C)c(-n3nccn3)sc21)O[C@@H]1C[C@H]2CC[C@@H](C1)O2
EC50: 1 nM

COc1ccccc1[C@H](Cn1c(=O)n(C(C)(C)C(=O)NS(=O)(=O)C2(C)CC2)c(=O)c2c(C)c(-n3nccn3)sc21)O[C@@H]1C[C@H]2CC[C@@H](C1)O2
EC50: 1 nM

Cc1c(-n2nccn2)sc2c1c(=O)n(C1(C(=O)NS(=O)(=O)C3(C)CC3)CC1)c(=O)n2C[C@H](O[C@@H]1C[C@H]2CC[C@@H](C1)O2)c1cc(F)ccc1OC(F)F
EC50: 0.9 nM

COc1ccccc1[C@H](Cn1c(=O)n([C@H](C)C(=O)NS(=O)(=O)C2(C)CC2)c(=O)c2c(C)c(-c3ncco3)sc21)O[C@@H]1C[C@H]2CC[C@@H](C1)O2
EC50: 1 nM

COc1ccc(F)cc1[C@H](Cn1c(=O)n(C(C)(C)C(=O)NS(=O)(=O)C2(C)CC2)c(=O)c2c(C)c(-n3nccn3)sc21)O[C@@H]1C[C@H]2CC[C@@H](C1)O2
EC50: 0.3 nM
